Earlier results as cited in patent US20090041840A1, “Positive wakeup pharmaceutical sleep system with compatible pre-bedtime administration” (priority 2003, published 2009).

What was measured:
[1] = Wesensten
[2] = not given; remark: listed apart in the source

NC(=O)C[S+]([O-])C(c1ccccc1)c1ccccc1 (centres unmarked) [modafinil]
Half-life (Wong, et al): approximately 15 hours

CCOC(=O)c1ncn2c1CN(C)C(=O)c1cc(F)ccc1-2 [Flumazenil, ethyl 8-fluoro-5,6-dihydro-5-methyl-6-oxo-4H-imidazo(1,5a)(1,4)benzodiazepine-3-carboxylate]
Effect in countering sleep deprivation [1]: ineffective

COC(=O)C(c1ccccc1)C1CCCCN1 (racemic) [methylphenidate]
Half-life, average (literature sources): 2.5 h

Cn1c(=O)c2c(ncn2C)n(C)c1=O [caffeine, 1,3,7-trimethylxanthine]
Mean half-life in plasma (healthy individuals, Brachtel and Richter, Busto et al.): about 5 hours

CCN(C(C)=O)c1cccc(-c2ccnc3c(C#N)cnn23)c1 [zaleplon]
Solubility in water [2]: practically insoluble
